How the values were obtained:
HIV-1(NL4-3) = format: cell-based
HIV-1(VSV G) = format: cell-based; details: 100 μM
HIV-1(Env) = format: cell-based
VEEV (TrD) = format: cell-based, Venezuelan equine encephalitis virus; details: Vero cells, MOI 0.1, 24 h
BTK = BTK (Homo sapiens, UniProt Q06187); test: Kinase profiling (Reaction Biology): BTK
PKA = PKA (Homo sapiens, UniProt P17612); test: Kinase profiling (Reaction Biology): PKA
RET = RET (Homo sapiens, UniProt P07949); test: Kinase profiling (Reaction Biology): RET
CK1d = CK1d (Homo sapiens, UniProt P48730); test: Kinase profiling (Reaction Biology): CK1d
EGFR = EGFR (Homo sapiens, UniProt P00533); test: Kinase profiling (Reaction Biology): EGFR
FLT3 = FLT3 (Homo sapiens, UniProt P36888); test: Kinase profiling (Reaction Biology): FLT3
Chain of FLT3 (P36888 27-993): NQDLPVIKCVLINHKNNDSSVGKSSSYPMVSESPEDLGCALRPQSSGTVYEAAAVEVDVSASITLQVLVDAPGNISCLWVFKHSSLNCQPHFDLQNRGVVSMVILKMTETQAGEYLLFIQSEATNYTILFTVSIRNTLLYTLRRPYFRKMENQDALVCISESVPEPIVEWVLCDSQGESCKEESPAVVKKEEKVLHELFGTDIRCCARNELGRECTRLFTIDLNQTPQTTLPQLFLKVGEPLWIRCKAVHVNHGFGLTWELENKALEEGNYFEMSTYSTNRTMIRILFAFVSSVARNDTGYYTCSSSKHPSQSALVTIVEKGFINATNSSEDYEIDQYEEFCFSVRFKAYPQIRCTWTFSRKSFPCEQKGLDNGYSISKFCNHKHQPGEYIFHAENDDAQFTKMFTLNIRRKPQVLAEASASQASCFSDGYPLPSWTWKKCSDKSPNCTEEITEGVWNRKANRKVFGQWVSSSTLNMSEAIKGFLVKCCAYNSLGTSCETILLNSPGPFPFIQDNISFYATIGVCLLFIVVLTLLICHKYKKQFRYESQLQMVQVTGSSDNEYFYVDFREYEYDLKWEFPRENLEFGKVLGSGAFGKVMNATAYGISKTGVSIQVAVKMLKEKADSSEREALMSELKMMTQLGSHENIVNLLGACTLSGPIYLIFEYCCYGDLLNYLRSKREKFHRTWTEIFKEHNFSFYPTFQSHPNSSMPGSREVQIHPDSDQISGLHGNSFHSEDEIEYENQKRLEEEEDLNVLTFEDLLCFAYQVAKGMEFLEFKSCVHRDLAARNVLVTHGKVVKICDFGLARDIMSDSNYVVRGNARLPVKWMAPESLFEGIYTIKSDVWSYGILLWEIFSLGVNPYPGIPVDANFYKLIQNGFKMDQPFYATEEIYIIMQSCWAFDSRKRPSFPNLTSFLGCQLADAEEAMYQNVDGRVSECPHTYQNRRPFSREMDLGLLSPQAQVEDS

JNK1 = JNK1 (Homo sapiens, UniProt P45983); test: Kinase profiling (Reaction Biology): JNK1
JNK3 = JNK3 (Homo sapiens, UniProt P53779); test: Kinase profiling (Reaction Biology): JNK3
SGK1 = SGK1 (Homo sapiens, UniProt O00141); test: Kinase profiling (Reaction Biology): SGK1
TAK1 = TAK1 (Homo sapiens, UniProt O43318); test: Kinase profiling (Reaction Biology): TAK1
WEE1 = WEE1 (Homo sapiens, UniProt P30291); test: Kinase profiling (Reaction Biology): WEE1
Chain of WEE1 (P30291 whole entry): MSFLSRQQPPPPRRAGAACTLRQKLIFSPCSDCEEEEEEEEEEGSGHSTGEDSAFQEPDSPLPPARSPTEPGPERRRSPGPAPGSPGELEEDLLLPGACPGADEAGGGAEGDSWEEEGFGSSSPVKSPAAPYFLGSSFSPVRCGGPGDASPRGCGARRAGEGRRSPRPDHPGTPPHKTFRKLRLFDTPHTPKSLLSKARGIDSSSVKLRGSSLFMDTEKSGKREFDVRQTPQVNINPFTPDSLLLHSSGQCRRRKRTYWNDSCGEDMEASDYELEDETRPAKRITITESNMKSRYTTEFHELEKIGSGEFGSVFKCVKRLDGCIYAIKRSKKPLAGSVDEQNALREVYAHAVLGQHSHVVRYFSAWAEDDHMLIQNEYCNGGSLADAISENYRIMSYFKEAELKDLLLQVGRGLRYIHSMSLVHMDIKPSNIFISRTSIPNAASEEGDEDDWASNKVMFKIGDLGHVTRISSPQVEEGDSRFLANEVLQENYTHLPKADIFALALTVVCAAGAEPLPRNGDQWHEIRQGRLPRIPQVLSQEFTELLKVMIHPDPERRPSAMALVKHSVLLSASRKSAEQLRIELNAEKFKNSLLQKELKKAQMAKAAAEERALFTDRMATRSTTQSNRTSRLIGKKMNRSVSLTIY

DAPK1 = DAPK1 (Homo sapiens, UniProt P53355); test: Kinase profiling (Reaction Biology): DAPK1
FGFR1 = FGFR1 (Homo sapiens, UniProt P11362); test: Kinase profiling (Reaction Biology): FGFR1
IGF1R = IGF1R (Homo sapiens, UniProt P08069); test: Kinase profiling (Reaction Biology): IGF1R
LIMK1 [1] = molecular target: T1, LIMK1 (Homo sapiens, UniProt P53667); test: Kinase profiling (Reaction Biology): LIMK1
ROCK2 = ROCK2 (Homo sapiens, UniProt O75116); test: Kinase profiling (Reaction Biology): ROCK2
Chain of ROCK2 (O75116 whole entry): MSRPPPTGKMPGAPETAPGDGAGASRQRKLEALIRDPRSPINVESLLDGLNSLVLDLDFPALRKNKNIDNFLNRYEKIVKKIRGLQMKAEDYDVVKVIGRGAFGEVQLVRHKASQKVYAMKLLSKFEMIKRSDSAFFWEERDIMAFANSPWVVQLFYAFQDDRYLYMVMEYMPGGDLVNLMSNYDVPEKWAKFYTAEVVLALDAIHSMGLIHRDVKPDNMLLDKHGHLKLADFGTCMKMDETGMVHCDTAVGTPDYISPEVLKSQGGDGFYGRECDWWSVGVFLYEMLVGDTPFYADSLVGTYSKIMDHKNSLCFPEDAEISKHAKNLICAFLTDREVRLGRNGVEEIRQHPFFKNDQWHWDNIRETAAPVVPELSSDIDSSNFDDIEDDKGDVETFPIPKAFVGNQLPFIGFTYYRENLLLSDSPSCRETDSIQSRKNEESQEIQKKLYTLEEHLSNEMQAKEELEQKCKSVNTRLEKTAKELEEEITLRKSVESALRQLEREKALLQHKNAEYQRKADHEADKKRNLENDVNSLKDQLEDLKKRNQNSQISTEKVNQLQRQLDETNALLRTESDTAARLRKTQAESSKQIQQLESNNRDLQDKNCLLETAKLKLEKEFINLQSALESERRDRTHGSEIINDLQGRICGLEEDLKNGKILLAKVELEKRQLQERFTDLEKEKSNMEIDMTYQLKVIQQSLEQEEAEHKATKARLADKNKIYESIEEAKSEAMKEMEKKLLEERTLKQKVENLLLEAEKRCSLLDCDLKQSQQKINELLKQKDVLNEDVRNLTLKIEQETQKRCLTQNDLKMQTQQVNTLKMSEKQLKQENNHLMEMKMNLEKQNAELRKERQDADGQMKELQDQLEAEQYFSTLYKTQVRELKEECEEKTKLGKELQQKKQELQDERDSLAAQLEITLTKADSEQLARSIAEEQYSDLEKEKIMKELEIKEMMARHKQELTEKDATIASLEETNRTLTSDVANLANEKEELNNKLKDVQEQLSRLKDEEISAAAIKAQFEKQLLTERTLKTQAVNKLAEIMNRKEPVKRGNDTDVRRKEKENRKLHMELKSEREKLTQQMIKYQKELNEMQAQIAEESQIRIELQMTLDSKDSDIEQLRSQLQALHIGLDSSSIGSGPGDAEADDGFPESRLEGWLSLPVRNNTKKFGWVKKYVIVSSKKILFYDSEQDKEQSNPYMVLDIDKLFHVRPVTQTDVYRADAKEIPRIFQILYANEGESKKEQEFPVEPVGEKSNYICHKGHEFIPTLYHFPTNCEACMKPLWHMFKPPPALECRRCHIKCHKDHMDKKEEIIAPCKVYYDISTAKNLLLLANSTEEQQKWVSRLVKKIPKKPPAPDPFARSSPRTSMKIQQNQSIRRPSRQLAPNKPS

STK33 = STK33 (Homo sapiens, UniProt Q9BYT3); test: Kinase profiling (Reaction Biology): STK33
Chain of STK33 (Q9BYT3 whole entry): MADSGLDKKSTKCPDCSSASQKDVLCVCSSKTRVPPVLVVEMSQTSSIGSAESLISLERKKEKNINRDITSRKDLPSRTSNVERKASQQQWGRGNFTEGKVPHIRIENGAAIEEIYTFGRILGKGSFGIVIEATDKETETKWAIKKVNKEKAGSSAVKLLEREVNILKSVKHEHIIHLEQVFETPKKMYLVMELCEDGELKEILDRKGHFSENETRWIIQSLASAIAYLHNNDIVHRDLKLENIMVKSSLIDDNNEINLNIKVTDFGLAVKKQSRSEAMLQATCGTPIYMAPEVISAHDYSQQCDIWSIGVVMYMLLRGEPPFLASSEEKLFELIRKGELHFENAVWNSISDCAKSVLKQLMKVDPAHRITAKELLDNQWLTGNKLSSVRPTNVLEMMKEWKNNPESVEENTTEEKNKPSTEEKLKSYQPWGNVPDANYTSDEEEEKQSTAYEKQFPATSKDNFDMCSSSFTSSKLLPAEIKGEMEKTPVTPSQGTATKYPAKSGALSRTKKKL

CAMK2b = CAMK2b (Homo sapiens, UniProt Q13554); test: Kinase profiling (Reaction Biology): CAMK2b
Chain of CAMK2b (Q13554 whole entry): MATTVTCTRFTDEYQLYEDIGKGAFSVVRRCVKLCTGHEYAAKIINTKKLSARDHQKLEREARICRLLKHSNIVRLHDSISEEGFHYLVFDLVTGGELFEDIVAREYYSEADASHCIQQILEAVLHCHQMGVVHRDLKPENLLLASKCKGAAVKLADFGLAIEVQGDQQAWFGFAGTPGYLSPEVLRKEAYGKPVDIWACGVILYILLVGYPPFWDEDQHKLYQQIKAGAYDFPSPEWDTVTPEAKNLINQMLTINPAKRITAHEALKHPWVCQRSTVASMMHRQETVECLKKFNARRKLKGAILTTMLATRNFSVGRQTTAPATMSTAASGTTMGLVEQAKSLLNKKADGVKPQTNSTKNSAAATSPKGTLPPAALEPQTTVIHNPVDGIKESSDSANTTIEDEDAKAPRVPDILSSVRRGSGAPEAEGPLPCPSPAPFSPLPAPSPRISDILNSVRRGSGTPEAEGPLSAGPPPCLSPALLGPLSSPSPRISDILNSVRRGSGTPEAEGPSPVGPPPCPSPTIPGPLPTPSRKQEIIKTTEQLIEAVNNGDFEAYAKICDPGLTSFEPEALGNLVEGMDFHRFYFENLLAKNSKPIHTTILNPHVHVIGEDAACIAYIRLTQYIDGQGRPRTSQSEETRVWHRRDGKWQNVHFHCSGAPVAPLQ

resting CD4 T cells = test: FITC-phalloidin staining of F-actin after SDF-1; details: 100 μM pretreatment, FITC-phalloidin flow cytometry
p70S6K/RPS6KB1 = p70S6K/RPS6KB1 (Homo sapiens, UniProt P23443); test: Kinase profiling (Reaction Biology): p70S6K/RPS6KB1; details: read-out: inhibition of p70S6K
Chain of p70S6K/RPS6KB1 (P23443 whole entry): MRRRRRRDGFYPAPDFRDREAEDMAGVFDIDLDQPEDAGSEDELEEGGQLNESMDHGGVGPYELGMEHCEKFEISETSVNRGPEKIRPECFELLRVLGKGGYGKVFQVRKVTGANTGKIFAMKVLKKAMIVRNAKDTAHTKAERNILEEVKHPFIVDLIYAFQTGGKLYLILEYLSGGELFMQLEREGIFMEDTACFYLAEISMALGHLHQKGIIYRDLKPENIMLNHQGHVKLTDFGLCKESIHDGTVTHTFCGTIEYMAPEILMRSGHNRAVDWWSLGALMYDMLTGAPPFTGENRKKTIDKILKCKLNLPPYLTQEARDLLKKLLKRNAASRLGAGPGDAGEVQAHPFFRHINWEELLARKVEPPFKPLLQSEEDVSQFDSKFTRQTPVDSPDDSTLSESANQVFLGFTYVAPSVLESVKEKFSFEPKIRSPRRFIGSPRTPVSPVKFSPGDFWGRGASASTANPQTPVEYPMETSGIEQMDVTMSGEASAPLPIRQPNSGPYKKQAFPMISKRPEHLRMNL

p-cofilin = test: Intracellular p-cofilin staining and flow cytometry in CEM-SS T cells; details: 100 μM, 1 h, 0 h: 20.6%
LIMK1 [2] = molecular target: T1, LIMK1; test: LIMK1 biochemical assay, 10-dose IC50; set-up: purified from insect cells; His; purchased Reaction Biology Corporation, Malvern, PA; host or cells: insect cells (coexpressed with ROCK1); details: purified LIMK1; 10 μM ATP, 1 μM cofilin; ≥2 in vitro kinase assays; read-out: LIMK1 Biochemical Inhibition IC50
Excerpt: We selected R10015 from the potential LIMK inhibitors for further detailed mechanistic studies. The synthesis, purification, and biochemical characterization of R10015 are described in Materials and Methods below and shown in Fig. 3. We performed a cell-free assay to measure R10015 inhibition of the LIM domain kinase using purified human LIMK1 and its substrate, cofilin. […] We also performed profiling of R10015 against a panel of 62 kinases (Table 2).
Biochemical LIMK1 assays for all inhibitors were carried out by Reaction Biology Corporation, Malvern, PA, and followed the protocols described on its website. […] Reactions were carried out at 10 μM ATP, 1 μM substrate (cofilin), and 50 nM LIMK1 (final concentrations). […] The reagents were as follows: base reaction buffer, 20 mM HEPES (pH 7.5), 10 mM MgCl2, 1 mM EGTA, 0.02% Brij 35, 0.02 mg/ml bovine serum albumin (BSA), 0.1 mM Na3VO4, 2 mM dithiothreitol (DTT), 1% DMSO. No additional cofactors were added to the reaction mixture. The reaction procedures were as follows. (i) The indicated substrate was prepared in freshly made base reaction buffer. (ii) Any required cofactors were delivered to the substrate solution described above. (iii) The indicated kinase was delivered into the substrate solution and gently mixed. (iv) The compounds in DMSO were delivered into the kinase reaction mixture. (v) [^33P]ATP (final specific activity, 0.01 μCi/μl) was delivered into the reaction mixture to initiate the reaction. […] (viii) The filters were washed extensively in 0.1% phosphoric acid.
Target sequence in this assay (P53667 285-638): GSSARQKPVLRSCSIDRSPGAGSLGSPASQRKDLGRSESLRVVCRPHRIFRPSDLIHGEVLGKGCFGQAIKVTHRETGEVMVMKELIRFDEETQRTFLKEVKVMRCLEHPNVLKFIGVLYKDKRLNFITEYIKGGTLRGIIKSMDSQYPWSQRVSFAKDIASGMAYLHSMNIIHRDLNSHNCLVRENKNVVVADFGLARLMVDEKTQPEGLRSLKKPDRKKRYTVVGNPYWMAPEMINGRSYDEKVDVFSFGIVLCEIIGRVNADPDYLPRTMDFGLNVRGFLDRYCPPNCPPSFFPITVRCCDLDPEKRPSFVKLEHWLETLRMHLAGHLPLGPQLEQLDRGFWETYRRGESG

`COC(=O)c1ccc2[nH]c(C3CCN(c4ncnc5[nH]cc(Cl)c45)CC3)nc2c1` [Compound R10015, Methyl 2-(1-(5-chloro-7H-pyrrolo[2,3-d]pyrimidin-4-yl)piperidin-4-yl)-1H-benzo[d]imidazole-5-carboxylate] was tested, and the “Infectivity (percentage of GFP+ cells)” value (HIV-1(NL4-3); 100 μM, pretreated 1 h, HIV-1(NL4-3) 3 h, washed, 48 h, viable cells only, paired DMSO controls 1.76-3.37%) was 0.43%, the “X4 HIV infection in screening” value (HIV-1(NL4-3); at nontoxic dosages, […], Fig. 1C and 2) was “blocked” and the “inhibition of early steps of VSV G-pseudotyped HIV” value (HIV-1(VSV G)) was “minimally inhibited”. For the same compound, the “viral late DNA synthesis” value (HIV-1(Env)) was “inhibited”, the “inhibition of VEEV (TrD)” value (VEEV (TrD)) was 2 log units and the activity at 1 µM (BTK) was 90.2%. The activity at 1 µM (PKA) was 24%, the inhibition at 1 µM (PKA; read-out: inhibition of protein kinase A (PKA)) was ~76% and the activity at 1 µM (RET) was 46.5%. It also gave an activity at 1 µM (CK1d) of 85%, an activity at 1 µM (EGFR) of 93.2% and an activity at 1 µM (FLT3) of 32.2%. For the same compound, the inhibition at 1 µM (FLT3; read-out: inhibition of FLT3) was ~68%, the activity at 1 µM (JNK1) was 95.2% and the activity at 1 µM (JNK3) was 85.7%. For the same compound, the activity at 1 µM (SGK1) was 61%, the activity at 1 µM (TAK1) was 82.4% and the activity at 1 µM (WEE1) was 97.2%. The activity at 1 µM (DAPK1) was 87.8%, the activity at 1 µM (FGFR1) was 86.5% and the activity at 1 µM (IGF1R) was 90%. It also gave an activity at 1 µM (LIMK1 [1]) of 6.4%, an activity at 1 µM (ROCK2) of 29.5% and an inhibition at 1 µM (ROCK2; read-out: inhibition of ROCK2) of ~70%. The activity at 1 µM (STK33) was 56.5%, the activity at 1 µM (CAMK2b) was 90.8% and the SDF-1-mediated actin polymerization (resting CD4 T cells) was “markedly depressed”. The inhibition at 1 µM (p70S6K/RPS6KB1) was ≥ 90%, the “P-cofilin, lower gate (cells staining low)” value (p-cofilin) was 80% and the IC50 (LIMK1 [2]) was 38 ± 5 nM.

Reference: paper PMC5469273, “Discovery of Novel Small-Molecule Inhibitors of LIM Domain Kinase for Inhibiting HIV-1” (Journal of Virology, 2017)
